In PMC6934184, “Selective DNA-PKcs inhibition extends the therapeutic index of localized radiotherapy and chemotherapy” (The Journal of Clinical Investigation, 2019):

Target: T1, ABL2 (Arg) (Homo sapiens, UniProt P42684)
T1 construct: purchased Thermo Fisher Scientific (Life Technologies) SelectScreen
Test: SelectScreen Z'LYTE
Format: biochemical
How it was run: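 Percent values come from Thermo SelectScreen profiling of NU5455, combining activity and binding assays. CSF1R was run in Z'LYTE format at Km app ATP, and CAMK1 in Adapta format with ATP listed at 10.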

T1 sequence (P42684 whole entry): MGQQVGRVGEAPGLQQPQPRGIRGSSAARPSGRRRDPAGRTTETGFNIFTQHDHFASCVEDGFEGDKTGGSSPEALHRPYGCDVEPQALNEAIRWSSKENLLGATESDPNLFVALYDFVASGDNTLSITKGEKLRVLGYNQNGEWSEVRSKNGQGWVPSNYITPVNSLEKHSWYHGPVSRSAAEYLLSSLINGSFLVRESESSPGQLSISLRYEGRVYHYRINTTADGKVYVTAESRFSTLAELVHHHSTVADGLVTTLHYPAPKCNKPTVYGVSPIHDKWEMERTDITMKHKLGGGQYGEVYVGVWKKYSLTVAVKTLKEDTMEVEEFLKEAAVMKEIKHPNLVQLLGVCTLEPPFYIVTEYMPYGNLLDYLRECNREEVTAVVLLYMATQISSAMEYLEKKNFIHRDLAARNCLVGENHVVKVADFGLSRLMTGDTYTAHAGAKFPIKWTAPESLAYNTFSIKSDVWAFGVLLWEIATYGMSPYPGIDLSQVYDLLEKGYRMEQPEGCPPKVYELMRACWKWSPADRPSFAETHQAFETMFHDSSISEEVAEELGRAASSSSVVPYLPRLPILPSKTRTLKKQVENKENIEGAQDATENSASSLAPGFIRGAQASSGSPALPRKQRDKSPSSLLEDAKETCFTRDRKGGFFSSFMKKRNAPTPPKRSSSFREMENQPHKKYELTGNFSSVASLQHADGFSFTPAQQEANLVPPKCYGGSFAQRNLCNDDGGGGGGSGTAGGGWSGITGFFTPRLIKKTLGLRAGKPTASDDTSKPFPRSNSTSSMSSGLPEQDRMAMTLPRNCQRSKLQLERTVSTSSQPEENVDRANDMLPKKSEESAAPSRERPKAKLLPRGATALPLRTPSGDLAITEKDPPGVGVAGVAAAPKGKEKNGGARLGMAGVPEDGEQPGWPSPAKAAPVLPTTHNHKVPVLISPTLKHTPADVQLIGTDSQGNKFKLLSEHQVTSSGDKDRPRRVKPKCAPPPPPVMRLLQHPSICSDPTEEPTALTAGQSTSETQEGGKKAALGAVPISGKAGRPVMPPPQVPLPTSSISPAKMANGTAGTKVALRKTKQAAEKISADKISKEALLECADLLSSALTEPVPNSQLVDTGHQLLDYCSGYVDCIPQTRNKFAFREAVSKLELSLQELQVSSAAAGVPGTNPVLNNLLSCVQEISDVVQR

Question: Which inhibition at 1 µM does the source give for `CN(C(=O)CN1CCOCC1)c1ccc2sc3c(-c4cccc5c(=O)cc(N6CC7CCC(C6)O7)oc45)cccc3c2c1` [NU5455] here?
Answer: -10.3%
